Laboratory results as given in PubChem BioAssay AID256 (DTP/NCI, 2004).
Values joined by “and” are separate entries in the source; they are usually repeats but may differ in a detail not shown here. Identical values can stand only once. Toxic doses and inconclusive results are not listed. The calls were made as follows: active = survival T/C of 150% or more; inactive = T/C below 125% in these data.

Tested on: CD2F1 mice, L1210 leukemia ip, survival T/C
Assay: NCI In Vivo Anticancer Drug Screen. Data for tumor model L1210 Leukemia (intraperitoneal) in CD2F1 (CDF1) mice
Settings: endpoint: mean survival time, higher = longer survival
Outline: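 Read-out first: treated-group measurement over vehicle-control measurement, expressed as a ratio. Animals bore a transplanted tumor line and were dosed with compound or vehicle.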

[1] = dose: 100.0 mg/kg/injection, schedule: Q01DX009 (ip), vehicle: saline with Tween-80
[2] = dose: 100.0 mg/kg/injection, schedule: Q04DX003 (ip), vehicle: saline with Tween-80
[3] = dose: 200.0 mg/kg/injection, schedule: Q01DX009 (ip), vehicle: saline with Tween-80
[4] = dose: 200.0 mg/kg/injection, schedule: Q04DX003 (ip), vehicle: saline with Tween-80
[5] = dose: 400.0 mg/kg/injection, schedule: Q01DX009 (ip), vehicle: saline with Tween-80
[6] = dose: 400.0 mg/kg/injection, schedule: Q04DX003 (ip), vehicle: saline with Tween-80
[7] = dose: 100.0 mg/kg/injection, schedule: Q04DX003 (ip), vehicle: saline
[8] = dose: 200.0 mg/kg/injection, schedule: Q04DX003 (ip), vehicle: saline
[9] = dose: 50.0 mg/kg/injection, schedule: Q01DX009 (ip), vehicle: saline
[10] = dose: 100.0 mg/kg/injection, schedule: Q01DX009 (ip), vehicle: saline
[11] = dose: 200.0 mg/kg/injection, schedule: Q01DX009 (ip), vehicle: saline
[12] = dose: 400.0 mg/kg/injection, schedule: Q01DX009 (ip), vehicle: saline
[13] = dose: 100.0 mg/kg/injection, schedule: Q01DX001 (ip), vehicle: saline
[14] = dose: 200.0 mg/kg/injection, schedule: Q01DX001 (ip), vehicle: saline
[15] = dose: 400.0 mg/kg/injection, schedule: Q01DX001 (ip), vehicle: saline
[16] = dose: 200.0 mg/kg/injection, schedule: Q04DX002 (ip), vehicle: saline with Tween-80
[17] = dose: 400.0 mg/kg/injection, schedule: Q04DX002 (ip), vehicle: saline with Tween-80
[18] = dose: 50.0 mg/kg/injection, schedule: Q04DX003 (ip), vehicle: saline with Tween-80

Measured: T/C

Cn1c(=O)[nH]c2c(nc(-c3ccc(Cl)cc3)n2CCc2ccccc2)c1=O
inactive: dose: 7.8 mg/kg/injection, schedule: Q01DX005 (ip), vehicle: other 100 % of control | dose: 15.6 mg/kg/injection, schedule: Q01DX005 (ip), vehicle: other 95 % of control | dose: 31.3 mg/kg/injection, schedule: Q01DX005 (ip), vehicle: other 95 % of control | dose: 62.5 mg/kg/injection, schedule: Q01DX005 (ip), vehicle: other 95 % of control | dose: 125.0 mg/kg/injection, schedule: Q01DX005 (ip), vehicle: other 95 % of control

O=c1[nH]cc(F)c(=O)[nH]1.[Tl]
inactive: dose: 1.5 mg/kg/injection, schedule: Q01DX009 (ip), vehicle: water 106 % of control | dose: 3.1 mg/kg/injection, schedule: Q01DX009 (ip), vehicle: water 112 % of control | dose: 6.25 mg/kg/injection, schedule: Q01DX009 (ip), vehicle: water 124 % of control | dose: 12.5 mg/kg/injection, schedule: Q01DX009 (ip), vehicle: water 91 % of control

CCCCCCSC(=O)NC(C)=O
inactive: [1] 92 % of control | [2] 91 % of control | [3] 94 % of control | [4] 94 % of control | [5] 106 % of control | [6] 94 % of control

OCC1c2ccc(Cl)cc2Nc2ccc(Cl)cc21 (stereo unspecified)
inactive: [2] 93 % of control | [4] 89 % of control | [6] 91 % of control

C=[CH][Pb]([CH]=C)([O]C(=O)C(C)C)[O]C(=O)C(C)C
inactive: dose: 5.0 mg/kg/injection, schedule: Q01DX009 (ip), vehicle: saline with Tween-80 93 % of control | dose: 10.0 mg/kg/injection, schedule: Q01DX009 (ip), vehicle: saline with Tween-80 95 % of control

Cc1c2ccccc2c(CN(C)CC(=O)O)c2ccccc12
inactive: [2] 102 % of control | [4] 102 % of control

[Cl][Cr][Cl].[NH-]CC[NH-].[NH-]CC[NH-]
inactive: dose: 100.0 mg/kg/injection, schedule: Q04DX002 (ip), vehicle: saline 95 % of control | dose: 200.0 mg/kg/injection, schedule: Q04DX002 (ip), vehicle: saline 95 % of control | dose: 400.0 mg/kg/injection, schedule: Q04DX002 (ip), vehicle: saline 88 % of control

CC1(C(=O)O)OCCO1
inactive: [7] 97 % of control | [8] 103 % of control | dose: 400.0 mg/kg/injection, schedule: Q04DX003 (ip), vehicle: saline 96 % of control

C[N+](C)(C)C.[Cl-].[Cl-].[Cl][Sn]([Cl])[Cl].[Cl][Sn]([Cl])[Cl].[Ru+]
inactive: dose: 25.0 mg/kg/injection, schedule: Q04DX002 (ip), vehicle: saline with Tween-80 107 % of control | dose: 50.0 mg/kg/injection, schedule: Q04DX002 (ip), vehicle: saline with Tween-80 96 % of control

CCCC(=O)Nc1ncnc2c1ncn2C1OC2COP(=O)(O)OC2C1OC(=O)CCC (stereo unspecified)
inactive: dose: 12.5 mg/kg/injection, schedule: Q01DX009 (ip), vehicle: saline 109 % of control | dose: 12.5 mg/kg/injection, schedule: Q01DX009 (ip), vehicle: suspension in saline 98 % of control | dose: 25.0 mg/kg/injection, schedule: Q01DX009 (ip), vehicle: saline 97 % of control | dose: 25.0 mg/kg/injection, schedule: Q01DX009 (ip), vehicle: suspension in saline 100 % of control | [9] 98 % of control | dose: 50.0 mg/kg/injection, schedule: Q01DX009 (ip), vehicle: suspension in saline 100 % of control | [10] 101 % of control | dose: 100.0 mg/kg/injection, schedule: Q01DX009 (ip), vehicle: suspension in saline 105 % of control | [11] 98 % of control | dose: 200.0 mg/kg/injection, schedule: Q01DX009 (ip), vehicle: suspension in saline 94 % of control | [12] 103 % of control | dose: 400.0 mg/kg/injection, schedule: Q01DX009 (ip), vehicle: suspension in saline 115 % of control

CC(=O)OCC1OC2OC(C)(C)OC2C2OC(C)(C)OC12 (stereo unspecified)
inactive: [2] 104 % of control | [4] 101 % of control | [6] 106 % of control

CCc1c(Br)c(CC)c(CC)c(CC)c1CC
inactive: [2] 98 % of control | [4] 98 % of control | [6] 97 % of control

CC(C)CC(NC(=O)C(CSC(c1ccccc1)(c1ccccc1)c1ccccc1)NC(c1ccccc1)(c1ccccc1)c1ccccc1)C(=O)O (stereo unspecified)
inactive: [9] 97 % of control | [10] 91 % of control | [11] 92 % of control | [12] 91 % of control

CCCC(C)OC(=O)c1ccc([N+](=O)[O-])cc1 (stereo unspecified)
inactive: [13] 100 % of control | [14] 110 % of control | [15] 93 % of control

COc1ccc(NC(=O)Nc2ccc(Cl)cc2OC)cc1
inactive: [16] 93 % of control | [17] 90 % of control

NC(=S)N/N=C1\c2cc(Cl)ccc2-c2c1cc(Cl)cc2[N+](=O)[O-]
inactive: dose: 50.0 mg/kg/injection, schedule: Q01DX001 (ip), vehicle: carboxymethylcellulose (CMC) 102 % of control | dose: 100.0 mg/kg/injection, schedule: Q01DX001 (ip), vehicle: carboxymethylcellulose (CMC) 102 % of control

O=C1c2ccccc2C(=O)N1CCCl
inactive: [1] 91 % of control | [3] 91 % of control | [5] 92 % of control

CC(=O)OC1C=C2CCC3C(CCC4(C)C(OC(C)=O)CCC34)C2(C)CC1 (stereo unspecified)
inactive: dose: 12.5 mg/kg/injection, schedule: Q04DX003 (ip), vehicle: Klucel (hydroxypropylcellulose) (HPC) 106 % of control | dose: 25.0 mg/kg/injection, schedule: Q04DX003 (ip), vehicle: Klucel (hydroxypropylcellulose) (HPC) 103 % of control | dose: 50.0 mg/kg/injection, schedule: Q04DX003 (ip), vehicle: Klucel (hydroxypropylcellulose) (HPC) 106 % of control

CCNC(=S)N(Cc1ccccc1)Cc1ccccc1
inactive: [18] 103 % of control | [2] 89 % of control and 98 % of control | [4] 100 % of control | [6] 87 % of control

CC(C)CCC(C)C1CCC2C3CC([N+](=O)[O-])=C4CC(OC(=O)c5ccccc5)CCC4(C)C3CCC12C (stereo unspecified)
inactive: [2] 102 % of control | [4] 92 % of control | [6] 92 % of control

CCCCCOc1nccc(N)n1
inactive: dose: 100.0 mg/kg/injection, schedule: Q01DX001 (ip), vehicle: saline with Tween-80 98 % of control

CN(C)c1ccc(CN2CCCN(Cc3ccc(N(C)C)cc3)C2c2ccncc2)cc1
inactive: [1] 94 % of control | [2] 104 % of control | [3] 95 % of control | [4] 103 % of control | [5] 95 % of control | [6] 103 % of control

CC(C)NC(=O)C1C2CCC(CC2)C1C(=O)NC(C)C (stereo unspecified)
inactive: [2] 98 % of control | [4] 98 % of control | [6] 95 % of control

Cc1ccc(NC(=S)Nc2ccc(C)cc2)cc1
inactive: [1] 89 % of control | [3] 91 % of control | [5] 93 % of control

CC1CCCCCCCCCCC12OCCO2 (stereo unspecified)
inactive: dose: 100.0 mg/kg/injection, schedule: Q04DX002 (ip), vehicle: saline with Tween-80 87 % of control | [16] 98 % of control | [17] 106 % of control

O=C(O)CC1CCC(CC(=O)O)CC1 (stereo unspecified)
inactive: [1] 101 % of control | [3] 104 % of control | [5] 101 % of control

O=C1CC[C@@H]2CCCC[C@@H]2C1
inactive: dose: 12.5 mg/kg/injection, schedule: Q01DX009 (ip), vehicle: saline with Tween-80 96 % of control | dose: 25.0 mg/kg/injection, schedule: Q01DX009 (ip), vehicle: saline with Tween-80 92 % of control | dose: 50.0 mg/kg/injection, schedule: Q01DX009 (ip), vehicle: saline with Tween-80 98 % of control | [18] 98 % of control

CC(=O)Nc1ccc(OC(=O)Nc2cccc(F)c2)cc1
inactive: [1] 91 % of control | [3] 95 % of control | [5] 91 % of control

O=C(O)CS(=O)(=O)c1ccc(Cl)cc1
inactive: dose: 100.0 mg/kg/injection, schedule: Q01DX001 (ip), vehicle: Klucel (hydroxypropylcellulose) (HPC) 111 % of control | dose: 200.0 mg/kg/injection, schedule: Q01DX001 (ip), vehicle: Klucel (hydroxypropylcellulose) (HPC) 103 % of control | dose: 400.0 mg/kg/injection, schedule: Q01DX001 (ip), vehicle: Klucel (hydroxypropylcellulose) (HPC) 100 % of control

CN(C)C(=O)c1ccc[n+](CC(=O)NCc2ccccc2)c1
inactive: [7] 98 % of control | [8] 98 % of control

CC(=O)O[C@H]1CC[C@@]2(C)[C@@H](CC[C@@H]3[C@@H]2CC(=O)[C@]2(C)[C@@H]4[C@H](C[C@@H]32)O[C@]2(CC[C@@H](C)CO2)[C@H]4C)C1
inactive: [13] 96 % of control | [14] 101 % of control | [15] 98 % of control
